Measurements reported in patent US10590158B2 (priority 2015, dated 2020).

Assays:
Test in all cases: cells
Format in all cases: cell-based
MES DX cells = details: MDR1, 72 h, read-out: IC50 MES DX
293T cells = details: Homo sapiens, HEK-293T, 72 h, read-out: IC50 293T
MES SA cells = details: Homo sapiens, 72 h, read-out: IC50 MES SA

Row | Compound | IC50 (MES DX cells) [nM] | IC50 (293T cells) [nM] | IC50 (MES SA cells) [nM]
1 | COC(=O)NC1=C2/C(=C\CSSC)[C@](O)(C#C/C=C\C#C[C@]2(O)OC2OC(C)C(SC)(C(=O)c3nccc4c3[nH]c3ccc(O)cc34)C(O)C2OC2CC(OC)C(NC(C)C)CO2)CC1=O (stereo partly shown) | 34.6 | 0.00146 | 
2 | COC(=O)NC1=C2/C(=C\CSSSC)[C@](O)(C#C/C=C\C#C[C@]2(O)OC2OC(C)C(SC)(C(=O)c3nccc4c3[nH]c3ccc(O)cc34)C(O)C2OC2CC(OC)C(NC(C)C)CO2)CC1=O (stereo partly shown) |  | 0.0162 | 0.0126
